Reference: patent publication US20230257396A1, “MACROCYCLES AND THEIR USE” (BLOSSOMHILL THERAPEUTICS, INC., priority 2020, published 2023)

Tests used:
Experiment in all cases: KINOMEscan kinase binding assay (Eurofins/DiscoveRx), % Ctrl
kinases [1] = target: T1, kinases (Homo sapiens, UniProt P00519)
T1 construct: purchased Eurofins/DiscoveRx; host or cells: E. coli BL21-derived host (T7 phage display) for most kinases; HEK-293 for the rest
Outline: (§1)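 Competition binding: DNA- or phage-tagged kinases (T7 phage in E. coli BL21, or HEK-293-expressed) with immobilized biotinylated ligand beads and test compound, 1 h at room temperature. Bead-bound kinase eluted and quantified by qPCR; % Ctrl = (compound − positive control)/(negative control − positive control) ×100 at a single compound concentration.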

kinases [2] = target: T2, kinases (Homo sapiens, UniProt P00519, F317I)
T2 construct: purchased Eurofins/DiscoveRx; host or cells: E. coli BL21-derived host (T7 phage display) for most kinases; HEK-293 for the rest
Outline: as §1

kinases [3] = target: T3, kinases (Homo sapiens, UniProt P00519, H396P)
T3 construct: purchased Eurofins/DiscoveRx; host or cells: E. coli BL21-derived host (T7 phage display) for most kinases; HEK-293 for the rest
Outline: as §1

kinases [4] = target: T4, kinases (Homo sapiens, UniProt P00519, Y253F)
T4 construct: purchased Eurofins/DiscoveRx; host or cells: E. coli BL21-derived host (T7 phage display) for most kinases; HEK-293 for the rest
Outline: as §1

kinases [5] = target: T5, kinases (Homo sapiens, UniProt P00533)
T5 construct: purchased Eurofins/DiscoveRx; host or cells: E. coli BL21-derived host (T7 phage display) for most kinases; HEK-293 for the rest
Outline: as §1

kinases [6] = target: T6, kinases (Homo sapiens, UniProt P00533, L858R)
T6 construct: purchased Eurofins/DiscoveRx; host or cells: E. coli BL21-derived host (T7 phage display) for most kinases; HEK-293 for the rest
Outline: as §1

kinases [7] = target: T7, kinases (Homo sapiens, UniProt P00533, L858R/T790M)
T7 construct: purchased Eurofins/DiscoveRx; host or cells: E. coli BL21-derived host (T7 phage display) for most kinases; HEK-293 for the rest
Outline: as §1

kinases [8] = target: T8, kinases (Homo sapiens, UniProt P00533, L861Q)
T8 construct: purchased Eurofins/DiscoveRx; host or cells: E. coli BL21-derived host (T7 phage display) for most kinases; HEK-293 for the rest
Outline: as §1

kinases [9] = target: T9, kinases (Homo sapiens, UniProt P07949, M918T)
T9 construct: purchased Eurofins/DiscoveRx; host or cells: E. coli BL21-derived host (T7 phage display) for most kinases; HEK-293 for the rest
Outline: as §1

kinases [10] = target: T10, kinases (Homo sapiens, UniProt P07949, V804L)
T10 construct: purchased Eurofins/DiscoveRx; host or cells: E. coli BL21-derived host (T7 phage display) for most kinases; HEK-293 for the rest
Outline: as §1

kinases [11] = target: T11, kinases (Homo sapiens, UniProt P09619)
T11 construct: purchased Eurofins/DiscoveRx; host or cells: E. coli BL21-derived host (T7 phage display) for most kinases; HEK-293 for the rest
Outline: as §1

kinases [12] = target: T12, kinases (Homo sapiens, UniProt P10721, L576P)
T12 construct: purchased Eurofins/DiscoveRx; host or cells: E. coli BL21-derived host (T7 phage display) for most kinases; HEK-293 for the rest
Outline: as §1

kinases [13] = target: T13, kinases (Homo sapiens, UniProt P10721, V559D/V654A)
T13 construct: purchased Eurofins/DiscoveRx; host or cells: E. coli BL21-derived host (T7 phage display) for most kinases; HEK-293 for the rest
Outline: as §1

kinases [14] = target: T14, kinases (Homo sapiens, UniProt P35916)
T14 construct: purchased Eurofins/DiscoveRx; host or cells: E. coli BL21-derived host (T7 phage display) for most kinases; HEK-293 for the rest
Outline: as §1

kinases [15] = target: T15, kinases (Homo sapiens, UniProt P36888)
T15 construct: purchased Eurofins/DiscoveRx; host or cells: E. coli BL21-derived host (T7 phage display) for most kinases; HEK-293 for the rest
T15 sequence (P36888 27-993): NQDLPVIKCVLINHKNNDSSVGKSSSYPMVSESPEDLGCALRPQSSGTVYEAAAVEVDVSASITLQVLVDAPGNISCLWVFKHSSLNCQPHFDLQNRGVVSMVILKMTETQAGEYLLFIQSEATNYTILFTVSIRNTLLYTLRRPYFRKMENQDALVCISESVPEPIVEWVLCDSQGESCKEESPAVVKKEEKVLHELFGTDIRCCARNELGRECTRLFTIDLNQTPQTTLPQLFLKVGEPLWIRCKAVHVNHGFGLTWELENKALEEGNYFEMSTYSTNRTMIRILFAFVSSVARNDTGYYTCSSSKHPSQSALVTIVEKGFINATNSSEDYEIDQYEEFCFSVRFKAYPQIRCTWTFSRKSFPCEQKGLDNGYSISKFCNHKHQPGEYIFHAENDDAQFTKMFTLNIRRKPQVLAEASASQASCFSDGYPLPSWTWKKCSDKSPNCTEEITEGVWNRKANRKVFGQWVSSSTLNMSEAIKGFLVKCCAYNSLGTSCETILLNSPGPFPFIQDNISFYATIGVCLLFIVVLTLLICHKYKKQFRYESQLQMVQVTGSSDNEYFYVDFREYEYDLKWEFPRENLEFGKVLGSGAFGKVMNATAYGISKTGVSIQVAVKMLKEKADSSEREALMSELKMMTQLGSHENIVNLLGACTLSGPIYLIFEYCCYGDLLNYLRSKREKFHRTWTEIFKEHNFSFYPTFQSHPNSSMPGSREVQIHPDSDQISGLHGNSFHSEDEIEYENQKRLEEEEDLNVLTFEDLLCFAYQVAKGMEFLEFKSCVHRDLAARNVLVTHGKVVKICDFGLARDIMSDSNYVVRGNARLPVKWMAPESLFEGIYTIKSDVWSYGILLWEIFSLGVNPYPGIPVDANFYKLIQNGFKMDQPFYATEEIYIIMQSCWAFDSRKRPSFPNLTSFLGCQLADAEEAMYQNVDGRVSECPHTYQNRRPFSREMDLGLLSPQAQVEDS
Outline: as §1

[16] = 1 μM; ABL1(F317I)-nonphosphorylated
[17] = 1 μM; ABL1(F317I)-phosphorylated
[18] = 1 μM; ABL1(H396P)-nonphosphorylated
[19] = 1 μM; ABL1(H396P)-phosphorylated
[20] = 1 μM; ABL1(Y253F)-phosphorylated

T9 sequence (P07949 29-1114 M918T): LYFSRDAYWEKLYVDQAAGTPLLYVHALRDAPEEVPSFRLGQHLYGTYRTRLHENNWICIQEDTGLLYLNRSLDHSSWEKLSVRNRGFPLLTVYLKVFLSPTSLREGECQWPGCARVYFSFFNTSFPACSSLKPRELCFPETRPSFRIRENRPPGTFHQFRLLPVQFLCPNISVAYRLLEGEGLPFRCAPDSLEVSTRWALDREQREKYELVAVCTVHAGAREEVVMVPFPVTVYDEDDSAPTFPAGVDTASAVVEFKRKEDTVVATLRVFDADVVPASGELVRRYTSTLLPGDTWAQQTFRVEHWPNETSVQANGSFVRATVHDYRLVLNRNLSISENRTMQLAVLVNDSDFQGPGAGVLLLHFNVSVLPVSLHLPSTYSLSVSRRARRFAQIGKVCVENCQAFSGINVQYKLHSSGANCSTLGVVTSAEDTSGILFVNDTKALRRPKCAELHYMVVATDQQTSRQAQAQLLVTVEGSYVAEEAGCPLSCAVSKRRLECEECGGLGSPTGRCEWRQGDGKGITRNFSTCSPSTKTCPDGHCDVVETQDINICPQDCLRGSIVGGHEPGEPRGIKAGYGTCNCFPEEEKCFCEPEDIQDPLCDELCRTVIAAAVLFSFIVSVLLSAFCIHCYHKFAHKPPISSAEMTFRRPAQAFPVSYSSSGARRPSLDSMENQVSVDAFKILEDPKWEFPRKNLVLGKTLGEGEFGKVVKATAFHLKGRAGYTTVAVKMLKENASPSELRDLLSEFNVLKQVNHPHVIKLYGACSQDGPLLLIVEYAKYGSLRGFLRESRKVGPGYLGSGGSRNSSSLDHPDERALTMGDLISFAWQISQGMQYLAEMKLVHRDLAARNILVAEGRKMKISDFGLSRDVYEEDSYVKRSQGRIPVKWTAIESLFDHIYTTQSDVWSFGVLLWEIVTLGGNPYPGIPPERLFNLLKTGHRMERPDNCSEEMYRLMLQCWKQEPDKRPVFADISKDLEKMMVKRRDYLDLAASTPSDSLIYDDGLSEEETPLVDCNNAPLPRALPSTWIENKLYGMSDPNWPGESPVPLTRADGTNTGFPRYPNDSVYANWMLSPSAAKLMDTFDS
T13 sequence (P10721 26-976 V559D/V654A): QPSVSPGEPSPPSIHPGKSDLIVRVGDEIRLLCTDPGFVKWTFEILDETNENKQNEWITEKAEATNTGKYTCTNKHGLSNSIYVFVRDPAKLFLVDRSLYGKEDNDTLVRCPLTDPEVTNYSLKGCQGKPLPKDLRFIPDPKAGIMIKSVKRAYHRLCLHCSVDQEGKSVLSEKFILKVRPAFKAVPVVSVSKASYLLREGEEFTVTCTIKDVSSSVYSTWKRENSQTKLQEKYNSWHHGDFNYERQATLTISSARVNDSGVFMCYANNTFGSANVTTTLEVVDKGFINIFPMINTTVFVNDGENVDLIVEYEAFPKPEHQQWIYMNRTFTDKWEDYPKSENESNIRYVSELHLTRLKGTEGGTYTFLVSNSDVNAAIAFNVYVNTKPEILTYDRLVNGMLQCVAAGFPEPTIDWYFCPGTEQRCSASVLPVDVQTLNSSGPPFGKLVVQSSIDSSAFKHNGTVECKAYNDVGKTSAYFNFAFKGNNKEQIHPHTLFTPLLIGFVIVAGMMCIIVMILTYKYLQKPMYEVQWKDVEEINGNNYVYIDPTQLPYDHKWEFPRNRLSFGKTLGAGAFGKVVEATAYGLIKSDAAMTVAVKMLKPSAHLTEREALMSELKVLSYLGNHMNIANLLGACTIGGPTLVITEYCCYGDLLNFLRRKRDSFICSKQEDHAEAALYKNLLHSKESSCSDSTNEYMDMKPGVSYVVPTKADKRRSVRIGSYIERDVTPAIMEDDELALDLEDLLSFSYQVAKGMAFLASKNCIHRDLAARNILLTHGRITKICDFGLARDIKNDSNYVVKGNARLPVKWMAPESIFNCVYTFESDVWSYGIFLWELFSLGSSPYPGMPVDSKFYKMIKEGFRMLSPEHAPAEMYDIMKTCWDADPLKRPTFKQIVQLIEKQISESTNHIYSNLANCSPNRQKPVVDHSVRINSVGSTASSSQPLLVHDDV
T12 sequence (P10721 26-976 L576P): as the sequence (P10721 26-976 V559D/V654A) above, with D534V, L551P, A629V counted along it
T10 sequence (P07949 29-1114 V804L): as the sequence (P07949 29-1114 M918T) above, with V776L, T890M counted along it
T14 sequence (P35916 25-1363): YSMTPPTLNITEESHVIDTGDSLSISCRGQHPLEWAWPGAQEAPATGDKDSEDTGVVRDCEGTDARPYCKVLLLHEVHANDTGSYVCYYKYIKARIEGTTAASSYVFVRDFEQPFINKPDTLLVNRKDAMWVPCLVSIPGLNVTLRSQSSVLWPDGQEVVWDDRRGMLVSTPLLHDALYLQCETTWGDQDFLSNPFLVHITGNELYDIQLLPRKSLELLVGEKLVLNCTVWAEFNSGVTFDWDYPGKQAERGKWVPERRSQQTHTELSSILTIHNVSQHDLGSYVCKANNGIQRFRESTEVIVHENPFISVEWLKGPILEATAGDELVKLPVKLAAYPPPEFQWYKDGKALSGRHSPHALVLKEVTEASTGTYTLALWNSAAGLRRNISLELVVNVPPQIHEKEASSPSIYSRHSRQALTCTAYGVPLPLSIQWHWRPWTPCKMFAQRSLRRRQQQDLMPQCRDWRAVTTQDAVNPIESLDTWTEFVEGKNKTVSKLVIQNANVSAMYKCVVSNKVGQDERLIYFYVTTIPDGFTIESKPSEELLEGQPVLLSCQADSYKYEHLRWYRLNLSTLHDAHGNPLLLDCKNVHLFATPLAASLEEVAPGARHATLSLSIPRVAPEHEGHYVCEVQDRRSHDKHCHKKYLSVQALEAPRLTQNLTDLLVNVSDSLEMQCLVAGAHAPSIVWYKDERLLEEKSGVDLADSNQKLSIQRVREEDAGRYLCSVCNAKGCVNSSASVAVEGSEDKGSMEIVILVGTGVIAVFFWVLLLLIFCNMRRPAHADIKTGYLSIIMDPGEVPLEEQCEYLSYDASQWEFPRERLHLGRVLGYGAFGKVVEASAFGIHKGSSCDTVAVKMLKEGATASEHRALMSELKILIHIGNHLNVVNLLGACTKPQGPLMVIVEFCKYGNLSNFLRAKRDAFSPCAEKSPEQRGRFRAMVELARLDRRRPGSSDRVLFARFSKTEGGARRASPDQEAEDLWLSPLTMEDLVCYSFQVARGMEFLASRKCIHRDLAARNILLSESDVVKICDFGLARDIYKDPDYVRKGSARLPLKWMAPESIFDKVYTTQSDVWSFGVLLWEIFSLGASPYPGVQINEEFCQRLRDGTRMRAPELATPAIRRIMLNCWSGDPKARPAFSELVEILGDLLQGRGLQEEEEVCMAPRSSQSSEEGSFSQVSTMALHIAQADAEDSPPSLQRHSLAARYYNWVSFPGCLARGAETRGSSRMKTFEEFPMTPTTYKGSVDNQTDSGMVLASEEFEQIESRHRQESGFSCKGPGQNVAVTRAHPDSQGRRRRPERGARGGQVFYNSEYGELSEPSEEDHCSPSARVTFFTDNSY
T11 sequence (P09619 33-1106): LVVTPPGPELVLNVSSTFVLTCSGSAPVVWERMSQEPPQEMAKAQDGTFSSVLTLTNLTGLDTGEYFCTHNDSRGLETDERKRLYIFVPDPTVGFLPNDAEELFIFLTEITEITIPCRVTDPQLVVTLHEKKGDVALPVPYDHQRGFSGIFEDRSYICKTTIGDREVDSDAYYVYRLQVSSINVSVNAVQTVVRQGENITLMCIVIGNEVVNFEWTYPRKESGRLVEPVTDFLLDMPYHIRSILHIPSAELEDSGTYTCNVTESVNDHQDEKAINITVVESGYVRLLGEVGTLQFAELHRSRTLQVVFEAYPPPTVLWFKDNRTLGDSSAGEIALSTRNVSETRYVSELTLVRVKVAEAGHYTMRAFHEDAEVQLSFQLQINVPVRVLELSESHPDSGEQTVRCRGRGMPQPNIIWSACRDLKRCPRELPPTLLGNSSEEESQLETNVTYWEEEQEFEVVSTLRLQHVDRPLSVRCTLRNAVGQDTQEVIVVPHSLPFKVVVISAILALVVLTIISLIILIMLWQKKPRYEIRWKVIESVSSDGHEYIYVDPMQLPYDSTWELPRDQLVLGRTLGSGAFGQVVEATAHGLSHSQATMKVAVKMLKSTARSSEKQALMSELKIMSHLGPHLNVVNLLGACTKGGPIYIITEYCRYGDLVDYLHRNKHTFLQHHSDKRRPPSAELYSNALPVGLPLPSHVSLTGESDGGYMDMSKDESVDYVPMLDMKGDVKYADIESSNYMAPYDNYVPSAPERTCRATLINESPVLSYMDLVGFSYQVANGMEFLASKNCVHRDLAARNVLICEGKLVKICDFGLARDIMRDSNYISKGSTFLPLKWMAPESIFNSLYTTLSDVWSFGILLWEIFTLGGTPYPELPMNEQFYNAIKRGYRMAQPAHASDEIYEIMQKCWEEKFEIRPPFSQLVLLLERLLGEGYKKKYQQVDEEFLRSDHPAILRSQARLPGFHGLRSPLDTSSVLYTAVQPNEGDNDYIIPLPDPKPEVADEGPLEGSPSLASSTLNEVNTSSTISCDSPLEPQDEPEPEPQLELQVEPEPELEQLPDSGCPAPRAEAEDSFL

% Ctrl, ABL1-nonphosphorylated (kinases [1]; 1 μM; ABL1-nonphosphorylated) [% Ctrl]	% Ctrl, ABL1-phosphorylated (kinases [1]; 1 μM; ABL1-phosphorylated) [% Ctrl]	% Ctrl, ABL1(F317I)-nonphosphorylated (kinases [2]; [16]) [% Ctrl]	% Ctrl, ABL1(F317I)-phosphorylated (kinases [2]; [17]) [% Ctrl]	% Ctrl, ABL1(H396P)-nonphosphorylated (kinases [3]; [18]) [% Ctrl]	% Ctrl, ABL1(H396P)-phosphorylated (kinases [3]; [19]) [% Ctrl]	% Ctrl, ABL1(Y253F)-phosphorylated (kinases [4]; [20]) [% Ctrl]	% Ctrl, EGFR (kinases [5]; 1 μM; EGFR) [% Ctrl]	% Ctrl, EGFR(L858R) (kinases [6]; 1 μM; EGFR(L858R)) [% Ctrl]	% Ctrl, EGFR(L858R, T790M) (kinases [7]; 1 μM; EGFR(L858R, T790M)) [% Ctrl]	% Ctrl, EGFR(L861Q) (kinases [8]; 1 μM; EGFR(L861Q)) [% Ctrl]	% Ctrl, RET(M918T) (kinases [9]; 1 μM; RET(M918T)) [% Ctrl]	% Ctrl, RET(V804L) (kinases [10]; 1 μM; RET(V804L)) [% Ctrl]	% Ctrl, PDGFRB (kinases [11]; 1 μM; PDGFRB) [% Ctrl]	% Ctrl, KIT(L576P) (kinases [12]; 1 μM; KIT(L576P)) [% Ctrl]	% Ctrl, KIT(V559D, V654A) (kinases [13]; 1 μM; KIT(V559D, V654A)) [% Ctrl]	% Ctrl, FLT4 (kinases [14]; 1 μM; FLT4) [% Ctrl]	% Ctrl, FLT3 (kinases [15]; 1 μM; FLT3) [% Ctrl]	% Ctrl, FLT3-autoinhibited (kinases [15]; 1 μM; FLT3-autoinhibited) [% Ctrl]	SMILES	other results
																			Cc1cc2c([nH]1)/C=C1\C(=O)Nc3cnc(cc31)-c1cnn(C)c1CN(C)CCN(C)C2=O [Ex. 172, [3a(4)Z]-6,9,12,14-tetramethyl-9,10,11,12,13,14-hexahydro-17,1-(azenometheno)pyrazolo[4,3-m]dipyrrolo[3,2-f:3′,4′-i][1,4]diazacyclopentadecine-3,8(2H,5H)-dione]	% Ctrl, ABL1-nonphosphorylated (kinases [1]; 1 μM; target ABL1-nonphosphorylated): 0.6 % Ctrl; % Ctrl, ABL1-phosphorylated (kinases [1]; 1 μM; target ABL1-phosphorylated): 1.4 % Ctrl; % Ctrl, ABL1(F317I)-nonphosphorylated (kinases [2]; 1 μM; target ABL1(F317I)-nonphosphorylated): 24 % Ctrl; % Ctrl, ABL1(F317I)-phosphorylated (kinases [2]; 1 μM; target ABL1(F317I)-phosphorylated): 9.3 % Ctrl; % Ctrl, ABL1(H396P)-nonphosphorylated (kinases [3]; 1 μM; target ABL1(H396P)-nonphosphorylated): 0 % Ctrl; % Ctrl, ABL1(H396P)-phosphorylated (kinases [3]; 1 μM; target ABL1(H396P)-phosphorylated): 0.1 % Ctrl; % Ctrl, ABL1(Y253F)-phosphorylated (kinases [4]; 1 μM; target ABL1(Y253F)-phosphorylated): 0.2 % Ctrl; % Ctrl, EGFR (kinases [5]; 1 μM; target EGFR): 36 % Ctrl; % Ctrl, EGFR(L858R) (kinases [6]; 1 μM; target EGFR(L858R)): 48 % Ctrl; % Ctrl, EGFR(L858R, T790M) (kinases [7]; 1 μM; target EGFR(L858R, T790M)): 3.3 % Ctrl; % Ctrl, EGFR(L861Q) (kinases [8]; 1 μM; target EGFR(L861Q)): 75 % Ctrl; % Ctrl, RET(M918T) (kinases [9]; 1 μM; target RET(M918T)): 0.8 % Ctrl; % Ctrl, RET(V804L) (kinases [10]; 1 μM; target RET(V804L)): 0.5 % Ctrl; % Ctrl, PDGFRB (kinases [11]; 1 μM; target PDGFRB): 1.9 % Ctrl; % Ctrl, KIT(L576P) (kinases [12]; 1 μM; target KIT(L576P)): 16 % Ctrl; % Ctrl, KIT(V559D, V654A) (kinases [13]; 1 μM; target KIT(V559D, V654A)): 40 % Ctrl; % Ctrl, FLT4 (kinases [14]; 1 μM; target FLT4): 1.7 % Ctrl; % Ctrl, FLT3 (kinases [15]; 1 μM; target FLT3): 8.5 % Ctrl; % Ctrl, FLT3-autoinhibited (kinases [15]; 1 μM; target FLT3-autoinhibited): 90 % Ctrl
																			Cc1cc2c([nH]1)/C=C1\C(=O)Nc3ccc(cc31)-c1c(C)nn(C)c1COCCN(C)C2=O [Ex. 146, [3a(4)Z]-6,9,14,16-tetramethyl-10,11,13,14-tetrahydro-2H-1,17-(ethanediylidene)pyrazolo[4,3-m]dipyrrolo[3,2-f:3′,4′-i][1,4]oxazacyclopentadecine-3,8(5H,9H)-dione]	% Ctrl, ABL1-nonphosphorylated (kinases [1]; target ABL1-nonphosphorylated; 1 μM): 64 % Ctrl; % Ctrl, ABL1-phosphorylated (kinases [1]; target ABL1-phosphorylated; 1 μM): 100 % Ctrl; % Ctrl, ABL1(F317I)-nonphosphorylated (kinases [2]; target ABL1(F317I)-nonphosphorylated; 1 μM): 100 % Ctrl; % Ctrl, ABL1(F317I)-phosphorylated (kinases [2]; target ABL1(F317I)-phosphorylated; 1 μM): 100 % Ctrl; % Ctrl, ABL1(H396P)-nonphosphorylated (kinases [3]; target ABL1(H396P)-nonphosphorylated; 1 μM): 50 % Ctrl; % Ctrl, ABL1(H396P)-phosphorylated (kinases [3]; target ABL1(H396P)-phosphorylated; 1 μM): 80 % Ctrl; % Ctrl, ABL1(Y253F)-phosphorylated (kinases [4]; target ABL1(Y253F)-phosphorylated; 1 μM): 89 % Ctrl; % Ctrl, EGFR (kinases [5]; target EGFR; 1 μM): 51 % Ctrl; % Ctrl, EGFR(L858R) (kinases [6]; target EGFR(L858R); 1 μM): 88 % Ctrl; % Ctrl, EGFR(L858R, T790M) (kinases [7]; target EGFR(L858R, T790M); 1 μM): 43 % Ctrl; % Ctrl, EGFR(L861Q) (kinases [8]; target EGFR(L861Q); 1 μM): 89 % Ctrl; % Ctrl, RET(M918T) (kinases [9]; target RET(M918T); 1 μM): 27 % Ctrl; % Ctrl, RET(V804L) (kinases [10]; target RET(V804L); 1 μM): 3 % Ctrl; % Ctrl, PDGFRB (kinases [11]; target PDGFRB; 1 μM): 96 % Ctrl; % Ctrl, KIT(L576P) (kinases [12]; target KIT(L576P); 1 μM): 90 % Ctrl; % Ctrl, KIT(V559D, V654A) (kinases [13]; target KIT(V559D, V654A); 1 μM): 97 % Ctrl; % Ctrl, FLT4 (kinases [14]; target FLT4; 1 μM): 78 % Ctrl; % Ctrl, FLT3-autoinhibited (kinases [15]; target FLT3-autoinhibited; 1 μM): 100 % Ctrl; % Ctrl, FLT3 (kinases [15]; target FLT3; 1 μM): 24 % Ctrl
60	51	100	55	28	51	49	91	88	48	100	93	56	85	100	100	45	66	89	Cc1cc2c([nH]1)/C=C1\C(=O)Nc3ccc(cc31)-c1c(noc1C)COCCN(C)C2=O [Ex. 128, [3a(4)Z]-6,9,16-trimethyl-1,11-dihydro-2H,13H-1,17-(ethanediylidene)[1,4]oxazolo[4,3-m]dipyrrolo[3,2-f:3′,4′-i][1,4]oxazacyclopentadecine-3,8(5H,9H)-dione]	
71	59	89	100	62	61	58	74	78	97	64	76	71	88	98	62	74	45	95	Cc1cc2c([nH]1)/C=C1\C(=O)Nc3ccc(cc31)CN(C)C(=O)COCCNC2=O [Ex.111, [17a(18)Z]-2,11-dimethyl-6,7,11,12-tetrahydro-1H-13,15-(ethanediylidene)dipyrrolo[3,2-f:3′,4′-i][1,4,14]oxadiazacyclohexadecine-4,10,17(5H,9H,16H)-trione]	
84	91	94	100	87	93	98	98	100	98	81	100	96	100	98	98	83	100	98	Cc1cc2c([nH]1)/C=C1\C(=O)Nc3ccc(cc31)OCCOCCNC2=O [Ex. 129, [16a(17)Z]-2-methyl-6,7,9,10-tetrahydro-1H-12,14-(ethanediylidene)dipyrrolo[3,2-i:3′,4′-l][1,4,7]dioxazacyclopentadecine-4,16(5H,15H)-dione]	
